Assay results as given in the supplement of paper PMC10307832.

What was measured:
Assay in all cases: relative viability (nuclei count vs DMSO), 5 days (fraction); higher = more cells survive
EHT 1864 = compound: C1COCCN1CC2=CC(=O)C(=CO2)OCCCCCSC3=C4C=CC(=CC4=NC=C3)C(F)(F)F [EHT 1864]
In short: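 Viability here means nuclei in treated wells divided by nuclei in vehicle wells, reported as the median across plates. Only plates with control CV below 25% and at least one doubling passed. Lung cancer cell lines in 1536-well plates were exposed to five √10-spaced library-drug doses for 5 days and counted from 4× Hoechst images in MetaXpress.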

EHT 1864 + Trametinib = compound: C1COCCN1CC2=CC(=O)C(=CO2)OCCCCCSC3=C4C=CC(=CC4=NC=C3)C(F)(F)F [EHT 1864] + CC(=O)Nc1cccc(-n2c(=O)n(C3CC3)c(=O)c3c(Nc4ccc(I)cc4F)n(C)c(=O)c(C)c32)c1 [Trametinib] (partner 0.02 µM)
In short: (§1)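 Values are medians from duplicate plates. Each reflects relative viability, defined as the nuclei count of treated wells over that of vehicle wells. Lung cancer cell lines in 1536-well plates were pin-tool dosed one day after seeding with one drug alone or with a fixed anchor-drug dose plus five library-drug doses (not always all listed) in √10 steps, then fixed, stained and imaged at 4× after 5 days.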

EHT 1864 + Phenformin = compound: C1COCCN1CC2=CC(=O)C(=CO2)OCCCCCSC3=C4C=CC(=CC4=NC=C3)C(F)(F)F [EHT 1864] + N=C(N)NC(=N)NCCc1ccccc1 [Phenformin] (partner 250 µM)
In short: as §1

EHT 1864 + Olaparib = compound: C1COCCN1CC2=CC(=O)C(=CO2)OCCCCCSC3=C4C=CC(=CC4=NC=C3)C(F)(F)F [EHT 1864] + O=C(c1cc(Cc2n[nH]c(=O)c3ccccc23)ccc1F)N1CCN(C(=O)C2CC2)CC1 [Olaparib] (partner 8 µM)
In short: as §1

Cell Line	relative viability (EHT 1864; 0.04 µM)	relative viability (EHT 1864; 0.1265 µM)	relative viability (EHT 1864; 0.4 µM)	relative viability (EHT 1864; 1.265 µM)	relative viability (EHT 1864; 4 µM)	relative viability (EHT 1864 + Trametinib; first compound 0.04 µM)	relative viability (EHT 1864 + Trametinib; first compound 0.1265 µM)	relative viability (EHT 1864 + Trametinib; first compound 0.4 µM)	relative viability (EHT 1864 + Trametinib; first compound 1.265 µM)	relative viability (EHT 1864 + Trametinib; first compound 4 µM)	relative viability (EHT 1864 + Phenformin; first compound 0.04 µM)	relative viability (EHT 1864 + Phenformin; first compound 0.1265 µM)	relative viability (EHT 1864 + Phenformin; first compound 0.4 µM)	relative viability (EHT 1864 + Phenformin; first compound 1.265 µM)	relative viability (EHT 1864 + Phenformin; first compound 4 µM)	relative viability (EHT 1864 + Olaparib; first compound 0.04 µM)	relative viability (EHT 1864 + Olaparib; first compound 0.1265 µM)	relative viability (EHT 1864 + Olaparib; first compound 0.4 µM)	relative viability (EHT 1864 + Olaparib; first compound 1.265 µM)	relative viability (EHT 1864 + Olaparib; first compound 4 µM)
LCLC-97TM1	1.01	0.762	1.01	0.881	0.903	0.2	0.178	0.193	0.183	0.236	0.424	0.364	0.444	0.415	0.414	0.347	0.346	0.328	0.326	0.444
HARA	0.962	0.782	1.1	1.14	1.05	0.729		0.908	0.782	1.14	0.396	0.483	0.466	0.351	0.416	0.872		0.967	0.876	0.761
HCC-78	0.968	0.907	0.923	0.922	1.13	0.633	0.66	0.842	0.645	0.777	0.635	0.604	0.694	0.746	0.733	0.781	0.887	0.773	0.868	0.92
NCI-H1666	1.05	0.879	0.957	0.916	1.08	0.961	0.886	0.8	0.884	0.862	0.614	0.504	0.584	0.562	0.627	0.732	0.756	0.73	0.839	0.775
NCI-H2347	1.07	0.75	1.01	0.966	1.03	0.222	0.281	0.251	0.276	0.463	0.585	0.432	0.478		0.46	0.624	0.452	0.53	0.541	0.402
NCI-H838	0.915	0.851	0.99	1.01	1	0.5	0.466	0.553	0.514	0.536	0.558	0.513	0.638	0.697	0.588	0.743	0.726	0.788	0.79	0.807
NCI-H2023	0.944	0.817	0.893	0.925	0.939	0.514	0.459	0.492	0.569	0.573	0.405	0.417	0.371	0.358	0.347	0.403	0.525	0.411	0.48	0.461
201T	0.97	0.92	1.02	0.974	0.913	0.702	0.707	0.681	0.693	0.605	0.471	0.423	0.434	0.483	0.445	0.821	0.794	0.856	0.73	0.81
NCI-H1915	0.964		1.01	0.98	0.92	0.295		0.283	0.28	0.286	0.396		0.366	0.382	0.374	0.287		0.251	0.257	0.257
NCI-H2009	0.971	0.945	1.03	0.906	0.877	0.252	0.267	0.301	0.336	0.277	0.467	0.468	0.493	0.362	0.436	0.618	0.548	0.702	0.66	0.49
BEN	0.864	0.812	1.05	0.871	0.967	0.819	0.949	1.09	0.928	1.1	0.251	0.275	0.282	0.263	0.247	1.06	0.982	0.836	0.914	1
PC-14	1.01	0.823	1.04	1.03	0.939	0.741	0.672	0.796	0.68	0.88	0.652		0.615	0.594	0.513	0.264	0.36	0.266	0.331	0.265
NCI-H1793	0.729	0.781	0.929	0.928	0.963	0.37	0.356	0.465	0.428	0.434	0.301		0.383		0.392	0.797	0.736	0.971	0.681	0.874
NCI-H727	0.924	0.909	0.936	0.979	0.946	0.389	0.386	0.382	0.374	0.421	0.551	0.574	0.481	0.461	0.597	1.07	0.75	0.459	0.529	0.524
NCI-H1355	0.949	0.732	0.965	0.984	0.987	0.461	0.39	0.393	0.452	0.412	0.471	0.425	0.447	0.446	0.433	0.718	0.657	0.772	0.727	0.706
NCI-H1975	0.886	0.954	0.887	0.841	0.895	0.375	0.329	0.296	0.225	0.327	0.406	0.42	0.407		0.396	0.812	0.828	0.781	0.791	0.719
